This is an account of results in PubChem BioAssay (NCI).

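How tested: cells in 96-well plates exposed to compound for 48 hours at five concentrations. Abbreviation: GI50, concentration required for 50% inhibition of growth. TGI marks complete inhibition of growth.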

Common to all, as to experiment: inhibition of tumour cell growth, NCI panel, 48 h
For assay [1], the system named is CCRF-CEM leukemia.
Assay [2] relates to COLO 205 colon.
For assay [3], the system named is HT29 colon.
The subject of assay [4] is KM12 colon.
Assay [5] concerns MDA-MB-435.
Assay [6] deals with NCI-H23 lung.
Assay [7] has as its system OVCAR-5 ovarian.
Assay [8] concerns RPMI-8226 leukemia.
For assay [9], the system named is SNB-19 CNS.
Assay [10] relates to UACC-257 melanoma.

With `CC1(C=O)CC(CCc2ccccc2)NC1Cc1ccc(O)cc1` (stereo unspecified), the TGI in assay [1] amounted to 82.7 µM; in assay [2] it was 23.3 µM; in assay [3], 29.5 µM; in assay [4], 37.5 µM; in [5], 34 µM; in assay [6], 43.5 µM. For the same compound, the TGI in [7] stood at 31.5 µM; in assay [8] it was 40.7 µM; in [9] it was 28.1 µM; in assay [10], 29.6 µM.

As to `COC(=O)[C@]12CC[C@H]3CN(S(=O)(=O)c4ccc(C)cc4)[C@H]([C@H]31)[C@H](c1ccco1)N2S(=O)(=O)c1ccc(C)cc1`, the TGI is greater than 100 µM in [1]; 45.3 µM in [2]; greater than 100 µM in assay [3]; greater than 100 µM in [4]; 55.8 µM in [5]; greater than 100 µM in [6]. Besides, the TGI is greater than 100 µM in assay [7], 86.2 µM in assay [8], greater than 100 µM in [9] and 81.1 µM in assay [10].

As to `Nc1c(S(=O)(=O)O)cc(S(=O)(=O)O)c2ccc(N=Nc3ccccc3)c(O)c12`, the TGI in assay [1], in assay [2], in [3], in assay [4], in assay [5] and in [6] was greater than 100 µM in each case. Moreover, the TGI in assay [7], in assay [8], in [9] and in assay [10] was greater than 100 µM each time.

For `C/C=C\C1OC1(C)c1cc(=O)c2c(C)cc3c(c2o1)C(=O)c1c(O)c(C2CC(C)(N(C)C)C(OC(C)=O)C(C)O2)cc(C2CC(N(C)C)C(O)C(C)O2)c1C3=O` (stereo unspecified), the TGI worked out at 0.379 µM in assay [1]; 0.00901 µM in assay [2]; 1.93 µM in [3]; 0.0109 µM in [4]; 0.0103 µM in assay [5]; 0.00871 µM in [6]. Moreover, the TGI in [7] was determined as 0.488 µM; in assay [8], 0.0574 µM; in assay [9], 0.103 µM; in assay [10] it was 0.0366 µM.

As to `O=C(c1ccccc1)c1ccc(N2C(=O)/C(=C/c3ccccc3S)N=C2c2ccccc2)c(N2C(=O)/C(=C/c3ccccc3S)N=C2c2ccccc2)c1`, the TGI in [1] is greater than 100 µM; in assay [2] it was greater than 100 µM; in assay [3] it was greater than 100 µM; in [4] it was greater than 100 µM; in assay [5] it was 46.1 µM; in [7] it was greater than 100 µM. Also, the figures for the TGI in assay [8], in assay [9] and in assay [10] were 53.1 µM, greater than 100 µM and greater than 100 µM, respectively.

Consider `O=C(O)C1=C(CO)Oc2cc3c(cc2C1c1ccc2c(c1)OCO2)OCO3` (stereo unspecified), for which the TGI in assay [1], in [2], in assay [3], in [6], in [8] and in assay [9] was greater than 100 µM each time. Moreover, the TGI in assay [10] was greater than 100 µM.

As for `CCCCCCC(=O)OC[n+]1ccc(-c2c(COC(=O)NC(C)C)c(COC(=O)NC(C)C)c3n2CCC3)cc1`, the TGI in assay [1] was greater than 88 µM; in [2] it was greater than 100 µM; in [3], greater than 100 µM; in [4] it was greater than 100 µM; in assay [5], greater than 100 µM; in assay [6], greater than 100 µM. Besides, the TGI was greater than 100 µM in assay [7], 98.9 µM in assay [8], greater than 100 µM in [9] and greater than 100 µM in [10].

`CCOC(=O)c1sc2nc(SC)nc3c2c1NC(=O)CN3c1ccc(F)cc1`: the TGI in [1] was 78.4 µM; in assay [2], greater than 100 µM; in assay [3], greater than 100 µM; in [4] it was greater than 100 µM; in assay [5] it was greater than 100 µM; in [6], greater than 100 µM. Moreover, the TGI in assay [7], in [8], in [9] and in assay [10] was greater than 100 µM each time.

In the case of `C=C(C)[C@@H]1CC[C@]2(C(=O)O)CC[C@]3(C)[C@H](CC[C@@H]4[C@@]5(C)C/C(=C/c6ccco6)C(=O)C(C)(C)[C@@H]5CC[C@]43C)[C@@H]12`, the GI50 was 2.15 µM in [2], 3.05 µM in assay [3], 3.55 µM in [5] and 3.12 µM in assay [10]. Further, the TGI was 4.38 µM in assay [2], greater than 100 µM in assay [3], greater than 100 µM in assay [5] and greater than 100 µM in assay [10].

Take `C/C(=C\[Si](C)(C)c1ccco1)C(C)(O)[C@H](C)O` (stereo partly specified): the TGI in assay [1] is greater than 100 µM; in [2], greater than 100 µM; in assay [3], greater than 100 µM; in [4], greater than 100 µM; in assay [5], greater than 100 µM; in assay [6] it was 86.4 µM. Further, the TGI in assay [7] is greater than 100 µM; in [8], greater than 100 µM; in [9], greater than 100 µM; in assay [10] it was 96.3 µM.

Turning to `Cc1nn(CNc2ccc(F)c(Cl)c2)c(=S)n1/N=C/c1ccc(-c2ccc(Cl)cc2Cl)o1`, the TGI was found to be 18.5 µM in assay [1]; 41.4 µM in assay [3]; 55.7 µM in assay [4]; 39 µM in assay [5]; 38.8 µM in [6]; 41.2 µM in [7]. The figures for the TGI in [8] and in [10] were 29.7 µM and 46.9 µM, respectively.

Take `Cc1csc2nc(-c3cc([N+](=O)[O-])c(Cl)cc3Cl)c(/C=N/N=C(N)N)n12`: the TGI was greater than 100 µM in assay [1]; 36.8 µM in assay [2]; 30.5 µM in [3]; 32.4 µM in assay [4]; 34.7 µM in assay [5]; 33 µM in assay [6]. Besides, the TGI was 49.4 µM in assay [7], 56.5 µM in assay [8], 36.5 µM in [9] and 32.8 µM in assay [10].

Regarding `O=P1(Oc2ccc(Cl)cc2Cl)Oc2cc3ccccc3cc2O1`, the TGI in assay [1], in assay [2], in [3], in [4], in assay [6] and in [7] was greater than 100 µM in each case. The TGI in assay [8] was greater than 60.1 µM; in assay [9], greater than 100 µM; in [10], greater than 100 µM.
